Literature values as cited in US20130324399A1, “FUNGICIDAL COMPOSITIONS AND METHODS OF USE” (Bayer Cropscience LP, priority 2010, published 2013).

Test system: Pythium spp.
Conditions: Triadimenol, 15% w/v

SMILES: CC(C)(C)C(O)C(Oc1ccc(Cl)cc1)n1cncn1 (stereo not shown) [Triadimenol, triadimenol]
- activity against Pythium spp.: no activity
